# Tests used:
# morningglory [1] = test: Test A preemergence; format: in vivo, Ipomoea spp.; settings: preemergence; for Morningglory plant response rating (0 to 100 scale): visual injury approx. 10 days after treatment
# In short: (§1)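 After sowing in a sand–loam mix, pots received compound preemergence by directed soil spray, or postemergence once plants reached the one- to two-leaf stage (2–10 cm). Formulation contained surfactant in a non-phytotoxic solvent. Injury was scored visually after ~10 greenhouse days, 0–100 scale.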
# wheat = test: Test A preemergence; format: in vivo, Triticum aestivum; settings: preemergence; for Wheat plant response rating (0 to 100 scale): visual injury approx. 10 days after treatment
# In short: as §1
# corn = test: Test A preemergence; format: in vivo, Zea mays; settings: preemergence; for Corn plant response rating (0 to 100 scale): visual injury approx. 10 days after treatment
# In short: as §1
# blackgrass = test: Test C preemergence; format: in vivo, Alopecurus myosuroides
# Text: (§2) Seeds of plant species selected from blackgrass (Alopecurus myosuroides), ryegrass, Italian (Italian ryegrass, Lolium multiflorum), wheat (winter wheat, Triticum aestivum), galium (catchweed bedstraw, Galium aparine), corn (Zea mays), crabgrass, large (large crabgrass, Digitaria sanguinalis), foxtail, giant (giant foxtail, Setaria faberii), johnsongrass (Sorghum halepense), lambsquarters (Chenopodium album), morningglory (Ipomoea coccinea), nutsedge, yellow (yellow nutsedge, Cyperus esculentus), pigweed (redroot pigweed, Amaranthus retroflexus), ragweed (common ragweed, Ambrosia elation), soybean (Glycine max), barnyardgrass (Echinochloa crus-galli), oilseed rape (Brassica napus), waterhemp (common waterhemp, Amaranthus rudis), oat, wild (wild oat, Avena fatua), kochia (Kochia scoparia), Surinam grass (Brachiaria decumbens), foxtail, green (green foxtail, Setaria viridis), goosegrass (Eleusine indica), bromegrass, downy (downy bromegrass, Bromus tectorum), nightshade (eastern black nightshade, Solanum ptycanthum), cocklebur (common cocklebur, Xanthium strumarium), cupgrass, woolly (woolly cupgrass, Eriochloa villosa), bermudagrass (Cynodon dactylon), sunflower, (common oilseed sunflower, Helianthus annuus), Russian thistle (Salsola kali), and velvetleaf (Abutilon theophrasti) were planted into a blend of loam soil and sand and treated preemergence with test chemicals formulated in a non-phytotoxic solvent mixture which included a surfactant.
# (§3) At the same time, plants selected from these crop and weed species and also chickweed (common chickweed, Stellaria media), canarygrass (littleseed canarygrass, Phalaris minor), and deadnettle (henbit deadnettle, Lamium amplexicaule), were planted in pots containing Redi-Earth® planting medium (Scotts Company, 14111 Scottslawn Road, Marysville, Ohio 43041) comprising spaghnum peat moss, vermiculite, wetting agent and starter nutrients and treated with postemergence applications of test chemicals formulated in the same manner. Plants ranged in height from 2 to 18 cm (1- to 4-leaf stage) for postemergence treatments. Treated plants and controls were maintained in a greenhouse for 13 to 15 days, after which time all species were compared to controls and visually evaluated. Plant response ratings, summarized in Table C, are based on a scale of 0 to 100 where 0 is no effect and 100 is complete control. A dash (-) response means no test result.
# ryegrass, Italian = test: Test C preemergence; format: in vivo, Lolium multiflorum
# Text: as §2, §3
# johnsongrass = test: Test C preemergence; format: in vivo, Sorghum halepense
# Text: as §2, §3
# morningglory [2] = test: Test C preemergence; format: in vivo, Ipomoea coccinea
# Text: as §2, §3
# pigweed = test: Test C preemergence; format: in vivo, Amaranthus retroflexus
# Text: as §2, §3
# barnyardgrass = test: Test C preemergence; format: in vivo, Echinochloa crus-galli
# Text: as §2, §3
# [3] = 500 g ai/ha, visual injury after approx. 10 days, 0 to 100 scale (0 no effect, 100 complete control)
# [4] = Preemergence, 16 g ai/ha, scale 0 to 100
# [5] = preemergence, 31 g ai/ha, visual rating, scale 0 to 100 (0 no effect, 100 complete control), 13 to 15 days
# [6] = preemergence, 62 g ai/ha, scale 0 to 100 (0 no effect, 100 complete control), 13 to 15 days
# [7] = preemergence, 125 g ai/ha, 13 to 15 days, scale 0 to 100, 0 = no effect, 100 = complete control
# [8] = 125 g ai/ha, visual injury, 0 to 100 scale, approx. 10 days
# [9] = Preemergence, 4 g ai/ha, scale 0 to 100
# [10] = Preemergence, 8 g ai/ha, scale 0 to 100
# [11] = preemergence, 250 g ai/ha, scale 0 to 100, 0 is no effect, 100 is complete control
structure (smiles),measurement,setting,value
CCNC(=O)c1cc(CCF)n(Cc2ccnc(C(F)(F)F)c2)n1 [Compound 178],Morningglory plant response rating (0 to 100 scale),morningglory [1]; 125 g ai/ha,80
same,Morningglory plant response rating,morningglory [1]; [3],100
same,Wheat plant response rating (0 to 100 scale),wheat; 125 g ai/ha,0
same,Wheat plant response rating,wheat; [3],30
same,Corn plant response rating (0 to 100 scale),corn; 125 g ai/ha,0
same,Corn plant response rating,corn; [3],50
same,"Plant response rating, Blackgrass",blackgrass; [4],0
same,Blackgrass plant response rating,blackgrass; [5],5
same,Blackgrass plant response rating,blackgrass; [6],30
same,"Plant response rating, Blackgrass",blackgrass; [7],85
same,"Plant response rating, Ryegrass, Italian","ryegrass, Italian; [4]",0
same,"Ryegrass, Italian plant response rating","ryegrass, Italian; [5]",5
same,"Ryegrass, Italian plant response rating","ryegrass, Italian; [6]",5
same,"Plant response rating, Ryegrass, Italian","ryegrass, Italian; [7]",15
same,"Plant response rating, Johnsongrass",johnsongrass; [4],0
same,Johnsongrass plant response rating,johnsongrass; [5],0
same,Johnsongrass plant response rating,johnsongrass; [6],5
same,"Plant response rating, Johnsongrass",johnsongrass; [7],25
same,"Plant response rating, Morningglory",morningglory [2]; [4],15
same,Morningglory plant response rating,morningglory [2]; [5],35
same,Morningglory plant response rating,morningglory [2]; [6],95
same,"Plant response rating, Morningglory",morningglory [2]; [7],100
same,"Plant response rating, Pigweed",pigweed; [4],45
same,Pigweed plant response rating,pigweed; [5],100
same,Pigweed plant response rating,pigweed; [6],100
same,"Plant response rating, Pigweed",pigweed; [7],100
same,"Plant response rating, Barnyardgrass",barnyardgrass; [4],0
same,Barnyardgrass plant response rating,barnyardgrass; [5],10
same,Barnyardgrass plant response rating,barnyardgrass; [6],60
same,"Plant response rating, Barnyardgrass",barnyardgrass; [7],100
CCOc1cc(C(=O)NCC(F)(F)F)nn1Cc1cc(C(F)(F)F)nn1C [Compound 140],Morningglory plant response rating,morningglory [1]; [8],80
same,Morningglory plant response rating,morningglory [1]; [3],100
same,Wheat plant response rating,wheat; [8],70
same,Wheat plant response rating,wheat; [3],100
same,Corn plant response rating,corn; [8],10
same,Corn plant response rating,corn; [3],80
same,"Plant response rating, Blackgrass",blackgrass; [9],0
same,"Plant response rating, Blackgrass",blackgrass; [10],0
same,"Plant response rating, Blackgrass",blackgrass; [4],5
same,Blackgrass plant response rating,blackgrass; [5],50
same,"Plant response rating, Ryegrass, Italian","ryegrass, Italian; [9]",0
same,"Plant response rating, Ryegrass, Italian","ryegrass, Italian; [10]",5
same,"Plant response rating, Ryegrass, Italian","ryegrass, Italian; [4]",10
same,"Ryegrass, Italian plant response rating","ryegrass, Italian; [5]",55
same,"Plant response rating, Johnsongrass",johnsongrass; [9],20
same,"Plant response rating, Johnsongrass",johnsongrass; [10],5
same,"Plant response rating, Johnsongrass",johnsongrass; [4],5
same,Johnsongrass plant response rating,johnsongrass; [5],25
same,"Plant response rating, Morningglory",morningglory [2]; [9],5
same,"Plant response rating, Morningglory",morningglory [2]; [10],5
same,"Plant response rating, Morningglory",morningglory [2]; [4],95
same,Morningglory plant response rating,morningglory [2]; [5],90
same,"Plant response rating, Pigweed",pigweed; [9],80
same,"Plant response rating, Pigweed",pigweed; [10],100
same,"Plant response rating, Pigweed",pigweed; [4],100
same,Pigweed plant response rating,pigweed; [5],100
same,"Plant response rating, Barnyardgrass",barnyardgrass; [9],0
same,"Plant response rating, Barnyardgrass",barnyardgrass; [10],5
same,"Plant response rating, Barnyardgrass",barnyardgrass; [4],30
same,Barnyardgrass plant response rating,"barnyardgrass; preemergence, 31 g ai/ha, scale 0 to 100 (0 no effect, 100 complete control), 13 to 15 days",80
O=C(NC1CC1)c1cc(CCF)n(Cc2ccnc(C(F)(F)F)c2)n1 [Compound 176],Morningglory plant response rating (0 to 100 scale),morningglory [1]; 125 g ai/ha,80
same,Morningglory plant response rating,morningglory [1]; [3],100
same,Wheat plant response rating (0 to 100 scale),wheat; 125 g ai/ha,20
same,Wheat plant response rating,wheat; [3],90
same,Corn plant response rating (0 to 100 scale),corn; 125 g ai/ha,10
same,Corn plant response rating,corn; [3],90
same,Blackgrass plant response rating,blackgrass; [5],5
same,Blackgrass plant response rating,blackgrass; [6],5
same,"Plant response rating, Blackgrass",blackgrass; [7],90
same,Blackgrass plant response rating,blackgrass; [11],90
same,"Ryegrass, Italian plant response rating","ryegrass, Italian; [5]",5
same,"Ryegrass, Italian plant response rating","ryegrass, Italian; [6]",10
same,"Plant response rating, Ryegrass, Italian","ryegrass, Italian; [7]",70
same,"Ryegrass, Italian plant response rating","ryegrass, Italian; [11]",85
same,Johnsongrass plant response rating,johnsongrass; [5],0
same,Johnsongrass plant response rating,johnsongrass; [6],20
same,"Plant response rating, Johnsongrass",johnsongrass; [7],65
same,Johnsongrass plant response rating,johnsongrass; [11],85
same,Morningglory plant response rating,morningglory [2]; [5],65
same,Morningglory plant response rating,morningglory [2]; [6],98
same,"Plant response rating, Morningglory",morningglory [2]; [7],98
same,Morningglory plant response rating,morningglory [2]; [11],100
same,Pigweed plant response rating,pigweed; [5],100
same,Pigweed plant response rating,pigweed; [6],100
same,"Plant response rating, Pigweed",pigweed; [7],100
same,Pigweed plant response rating,pigweed; [11],100
same,Barnyardgrass plant response rating,barnyardgrass; [5],25
same,Barnyardgrass plant response rating,barnyardgrass; [6],100
same,"Plant response rating, Barnyardgrass",barnyardgrass; [7],100
same,Barnyardgrass plant response rating,barnyardgrass; [11],100
CCCc1cc(C(=O)NOC(C)C)nn1Cc1cc(C(F)(F)F)nn1C [Compound 203],Morningglory plant response rating (0 to 100 scale),morningglory [1]; 125 g ai/ha,10
same,Wheat plant response rating (0 to 100 scale),wheat; 125 g ai/ha,80
same,Corn plant response rating (0 to 100 scale),corn; 125 g ai/ha,20
same,Corn plant response rating,corn; [3],80
same,Blackgrass plant response rating,blackgrass; [5],30
same,Blackgrass plant response rating,blackgrass; [6],50
same,"Plant response rating, Blackgrass",blackgrass; [7],85
same,Blackgrass plant response rating,blackgrass; [11],90
same,"Ryegrass, Italian plant response rating","ryegrass, Italian; [5]",5
same,"Ryegrass, Italian plant response rating","ryegrass, Italian; [6]",60
same,"Plant response rating, Ryegrass, Italian","ryegrass, Italian; [7]",90
same,"Ryegrass, Italian plant response rating","ryegrass, Italian; [11]",90
same,Johnsongrass plant response rating,johnsongrass; [5],0
same,Johnsongrass plant response rating,johnsongrass; [6],0
same,"Plant response rating, Johnsongrass",johnsongrass; [7],40
same,Johnsongrass plant response rating,johnsongrass; [11],55
same,Morningglory plant response rating,morningglory [2]; [5],30
same,Morningglory plant response rating,morningglory [2]; [6],95
same,"Plant response rating, Morningglory",morningglory [2]; [7],85
same,Morningglory plant response rating,morningglory [2]; [11],100
same,Pigweed plant response rating,pigweed; [5],100
same,Pigweed plant response rating,pigweed; [6],100
same,"Plant response rating, Pigweed",pigweed; [7],100
same,Pigweed plant response rating,pigweed; [11],100
same,Barnyardgrass plant response rating,barnyardgrass; [5],35
same,Barnyardgrass plant response rating,barnyardgrass; [6],98
same,"Plant response rating, Barnyardgrass",barnyardgrass; [7],100
same,Barnyardgrass plant response rating,barnyardgrass; [11],100
O=C(NCC(F)(F)F)c1cc(CCF)n(Cc2ccnc(C(F)(F)F)c2)n1 [Compound 175],Morningglory plant response rating (0 to 100 scale),morningglory [1]; 125 g ai/ha,100
same,Morningglory plant response rating,morningglory [1]; [3],100
same,Wheat plant response rating (0 to 100 scale),wheat; 125 g ai/ha,20
same,Wheat plant response rating,wheat; [3],100
same,Corn plant response rating (0 to 100 scale),corn; 125 g ai/ha,50
same,Corn plant response rating,corn; [3],80
same,Blackgrass plant response rating,blackgrass; [5],30
same,Blackgrass plant response rating,blackgrass; [6],90
same,"Plant response rating, Blackgrass",blackgrass; [7],90
same,Blackgrass plant response rating,blackgrass; [11],90
same,"Ryegrass, Italian plant response rating","ryegrass, Italian; [5]",30
same,"Ryegrass, Italian plant response rating","ryegrass, Italian; [6]",85
same,"Plant response rating, Ryegrass, Italian","ryegrass, Italian; [7]",90
same,"Ryegrass, Italian plant response rating","ryegrass, Italian; [11]",90
same,Johnsongrass plant response rating,johnsongrass; [5],0
same,Johnsongrass plant response rating,johnsongrass; [6],35
same,"Plant response rating, Johnsongrass",johnsongrass; [7],70
same,Johnsongrass plant response rating,johnsongrass; [11],100
same,Morningglory plant response rating,morningglory [2]; [5],95
same,Morningglory plant response rating,morningglory [2]; [6],100
same,"Plant response rating, Morningglory",morningglory [2]; [7],100
same,Morningglory plant response rating,morningglory [2]; [11],100
same,Pigweed plant response rating,pigweed; [5],100
same,Pigweed plant response rating,pigweed; [6],100
same,"Plant response rating, Pigweed",pigweed; [7],100
same,Pigweed plant response rating,pigweed; [11],100
same,Barnyardgrass plant response rating,barnyardgrass; [5],80
same,Barnyardgrass plant response rating,barnyardgrass; [6],80
same,"Plant response rating, Barnyardgrass",barnyardgrass; [7],100
same,Barnyardgrass plant response rating,barnyardgrass; [11],100

# Reference: patent US20150105252A1, “SUBSTITUTED PYRAZOLES AS HERBICIDES” (E I DU PONT DE NEMOURS AND COMPANY, priority 2013, published 2015)
